{
  "source": "the supplement of paper PMC10307832",
  "assay_in_all_cases": "relative viability (nuclei count vs DMSO), 5 days (fraction); higher = more cells survive",
  "key": {"Venetoclax + Olaparib": {"compound": "CC1(C)CCC(CN2CCN(c3ccc(C(=O)NS(=O)(=O)c4ccc(NCC5CCOCC5)c([N+](=O)[O-])c4)c(Oc4cnc5[nH]ccc5c4)c3)CC2)=C(c2ccc(Cl)cc2)C1 [Venetoclax] + O=C(c1cc(Cc2n[nH]c(=O)c3ccccc23)ccc1F)N1CCN(C(=O)C2CC2)CC1 [Olaparib] (partner 8 µM)", "how_it_was_run": "(§1)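 For relative viability, nuclei counts in treated wells were divided by those in vehicle wells. Lung cancer cell lines had been pin-tool dosed in 1536-well plates the day after seeding and cultured for 5 days, then fixed and stained in one step (final 0.05% Triton X-100, 1% formaldehyde, 1 ug/ml Hoechst) and imaged at 4×. Doses were one drug alone or a fixed anchor-drug dose plus five library-drug doses (not always all listed) in √10 steps, and values are duplicate-plate medians.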"}, "Venetoclax + Alpelisib": {"compound": "CC1(C)CCC(CN2CCN(c3ccc(C(=O)NS(=O)(=O)c4ccc(NCC5CCOCC5)c([N+](=O)[O-])c4)c(Oc4cnc5[nH]ccc5c4)c3)CC2)=C(c2ccc(Cl)cc2)C1 [Venetoclax] + Cc1nc(NC(=O)N2CCC[C@H]2C(N)=O)sc1-c1ccnc(C(C)(C)C(F)(F)F)c1 [Alpelisib] (partner 2 µM)", "how_it_was_run": "as §1"}, "Selumetinib + Dasatinib": {"compound": "Cn1cnc2c(F)c(Nc3ccc(Br)cc3Cl)c(C(=O)NOCCO)cc21 [Selumetinib] + Cc1nc(Nc2ncc(C(=O)Nc3c(C)cccc3Cl)s2)cc(N2CCN(CCO)CC2)n1 [Dasatinib] (partner 0.075 µM)", "how_it_was_run": "as §1"}, "Venetoclax + Pemetrexed": {"compound": "CC1(C)CCC(CN2CCN(c3ccc(C(=O)NS(=O)(=O)c4ccc(NCC5CCOCC5)c([N+](=O)[O-])c4)c(Oc4cnc5[nH]ccc5c4)c3)CC2)=C(c2ccc(Cl)cc2)C1 [Venetoclax] + Nc1nc2[nH]cc(CCc3ccc(C(=O)N[C@@H](CCC(=O)O)C(=O)O)cc3)c2c(=O)[nH]1 [Pemetrexed] (partner 0.2 µM)", "how_it_was_run": "as §1"}},
  "data": [
    {"cell line": "UMC-11", "values": [
      {"measurement": "relative viability", "setting": "Venetoclax + Olaparib; first compound 0.01 µM", "result": 0.401},
      {"measurement": "relative viability", "setting": "Venetoclax + Olaparib; first compound 0.03162 µM", "result": 0.322},
      {"measurement": "relative viability", "setting": "Venetoclax + Olaparib; first compound 0.1 µM", "result": 0.303},
      {"measurement": "relative viability", "setting": "Venetoclax + Olaparib; first compound 0.3162 µM", "result": 0.379},
      {"measurement": "relative viability", "setting": "Venetoclax + Olaparib; first compound 1 µM", "result": 0.886},
      {"measurement": "relative viability", "setting": "Venetoclax + Alpelisib; first compound 0.01 µM", "result": 0.924},
      {"measurement": "relative viability", "setting": "Venetoclax + Alpelisib; first compound 0.03162 µM", "result": 1.05},
      {"measurement": "relative viability", "setting": "Venetoclax + Alpelisib; first compound 0.1 µM", "result": 0.926},
      {"measurement": "relative viability", "setting": "Venetoclax + Alpelisib; first compound 0.3162 µM", "result": 0.923},
      {"measurement": "relative viability", "setting": "Venetoclax + Alpelisib; first compound 1 µM", "result": 0.915},
      {"measurement": "relative viability", "setting": "Selumetinib + Dasatinib; first compound 0.02 µM", "result": 0.465},
      {"measurement": "relative viability", "setting": "Selumetinib + Dasatinib; first compound 0.06325 µM", "result": 0.486},
      {"measurement": "relative viability", "setting": "Selumetinib + Dasatinib; first compound 0.2 µM", "result": 0.474},
      {"measurement": "relative viability", "setting": "Selumetinib + Dasatinib; first compound 0.6325 µM", "result": 0.547},
      {"measurement": "relative viability", "setting": "Venetoclax + Pemetrexed; first compound 0.01 µM", "result": 0.782},
      {"measurement": "relative viability", "setting": "Venetoclax + Pemetrexed; first compound 0.03162 µM", "result": 0.666},
      {"measurement": "relative viability", "setting": "Venetoclax + Pemetrexed; first compound 0.1 µM", "result": 0.731},
      {"measurement": "relative viability", "setting": "Venetoclax + Pemetrexed; first compound 0.3162 µM", "result": 0.752},
      {"measurement": "relative viability", "setting": "Venetoclax + Pemetrexed; first compound 1 µM", "result": 0.736}
    ]}
  ]
}
